# Reference: US7977082B2, “Isomaltulose synthases, polynucleotides encoding them and uses therefor” (The University of Queensland of St. Lucia, priority 2001, dated 2011)
# T1: Klebsiella sp. 14S sucrose isomerase (SI), carboxy-terminal 6×His tag (SEQ ID NO: 52) (Klebsiella planticola, UniProt Q6XKX6)
# T1 sequence (Q6XKX6 29-598): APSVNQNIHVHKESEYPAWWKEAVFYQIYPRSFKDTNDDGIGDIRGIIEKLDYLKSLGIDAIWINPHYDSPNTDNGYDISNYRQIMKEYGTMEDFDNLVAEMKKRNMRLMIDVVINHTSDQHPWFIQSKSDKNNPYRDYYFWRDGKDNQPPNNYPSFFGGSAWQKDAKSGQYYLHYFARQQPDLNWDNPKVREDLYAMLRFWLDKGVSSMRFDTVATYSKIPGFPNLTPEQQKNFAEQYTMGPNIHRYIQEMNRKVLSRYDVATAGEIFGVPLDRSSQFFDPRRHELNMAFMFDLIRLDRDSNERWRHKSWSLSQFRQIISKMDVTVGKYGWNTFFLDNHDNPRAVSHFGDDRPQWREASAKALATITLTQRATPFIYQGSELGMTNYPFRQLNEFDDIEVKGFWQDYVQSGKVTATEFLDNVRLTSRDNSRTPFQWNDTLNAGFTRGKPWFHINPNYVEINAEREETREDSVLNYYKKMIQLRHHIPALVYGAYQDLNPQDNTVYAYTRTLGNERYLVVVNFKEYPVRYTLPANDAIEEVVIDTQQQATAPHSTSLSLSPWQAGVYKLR
# T2: Pantoea dispersa 68J sucrose isomerase (SI), mature, SEQ ID NO: 10, carboxy-terminal 6×His tag (SEQ ID NO: 52) (Pantoea dispersa, UniProt Q6XNK6)
# T2 sequence (Q6XNK6 34-598): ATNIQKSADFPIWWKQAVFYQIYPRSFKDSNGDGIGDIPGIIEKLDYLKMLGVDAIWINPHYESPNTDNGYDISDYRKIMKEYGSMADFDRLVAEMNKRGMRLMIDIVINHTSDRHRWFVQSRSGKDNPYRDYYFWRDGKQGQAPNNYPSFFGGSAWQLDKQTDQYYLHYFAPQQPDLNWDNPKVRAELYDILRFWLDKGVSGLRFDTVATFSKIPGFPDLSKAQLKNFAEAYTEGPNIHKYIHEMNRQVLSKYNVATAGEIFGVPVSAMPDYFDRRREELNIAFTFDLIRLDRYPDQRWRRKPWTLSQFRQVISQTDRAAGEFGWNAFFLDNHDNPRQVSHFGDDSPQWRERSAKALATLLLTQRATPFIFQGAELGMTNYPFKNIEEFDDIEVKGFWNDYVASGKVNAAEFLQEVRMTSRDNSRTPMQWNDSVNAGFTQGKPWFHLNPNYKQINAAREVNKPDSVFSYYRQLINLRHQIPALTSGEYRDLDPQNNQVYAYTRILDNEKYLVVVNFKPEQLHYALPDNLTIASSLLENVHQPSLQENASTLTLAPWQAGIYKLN
# Assays:
# [1] = test system: purified SI from Klebsiella sp. 14S; test: Inhibition of isomaltulose production by glucose and fructose; assay type: biochemical; conditions: 277 mM glucose or fructose
# Description: (§1) SI activity was measured by incubating the purified enzyme with different sucrose concentrations (3, 6, 15, 58, 146, 292, 584, 877, 1169 and 1461 mM) under standard assay conditions, and also with addition of glucose, fructose or both to a final concentration of 277 mM. Data were analyzed according to the method of Lineweaver and Burk (Voet and Voet, 1995) to calculate Km and Vmax values.
# [2] = test system: purified SI from P. dispersa 68J; test: as above; assay type: biochemical; conditions: 277 mM glucose or fructose
# Description: as §1
# P. dispersa 68J = test: Growth in BP medium with different sugars; assay type: cell-based; conditions: 2% sugar added to BP medium, 18 h incubation at 30°C
# Description: (§2) Isomaltulose production was tested using cells grown in LB and in a basal peptone medium (BP, comprising 1% BBL gelysate peptone and 0.5% NaCl, adjusted to pH 7.0 prior to autoclaving). Glucose, fructose, sucrose, lactose, maltose or isomaltulose was added to the cooled media, from a filter-sterilised stock. The media containing 4% (w/v) sucrose are referred to as SLB and SBP respectively.
# (§3) Inoculum of 100 μL from a culture grown for 12 h in LB medium was added to 25 mL growth medium in a 250 mL flask. After 18 h at 30° C. on a shaker at 225 rpm, OD600 was used to measure growth. Cultures were diluted with growth medium to OD600=1.50 (approximately half the cell density of a saturated culture in SLB). Aliquots of 1 mL were harvested by centrifugation at 5000×g for 10 min and washed three times with 0.1 M citrate/phosphate buffer (pH 6.0). The cell pellets were resuspended in 0.4 mL of 0.1 M citrate/phosphate buffer (pH 6.0) containing 50% sucrose (w/v). Culture supernatant was filtered through a 0.2 μm filter (Pall Acrodisc), and 0.1 mL was mixed with 0.4 mL of 0.1 M citrate/phosphate buffer (pH 6.0) containing 50% sucrose (w/v), for parallel testing of culture filtrate and harvested cells in the SI assay.
# [3] = test system: E. rhapontici sucrose isomerase (SI); conditions: Nagai et al., 1994; Véronèse and Perlot, 1998; cited from earlier work
# [4] = test system: P. mesoacidophila sucrose isomerase (SI); conditions: Nagai et al., 1994; Véronèse and Perlot, 1998; cited from earlier work
# [5] = molecular target: T1, Klebsiella sp. 14S sucrose isomerase (SI), carboxy-terminal 6×His tag (SEQ ID NO: 52); test: Sucrose isomerase kinetics, purified SI from Klebsiella sp. 14S (isomaltulose production), with or without glucose/fructose; assay type: biochemical; conditions: glucose vs fructose, 0.277 M, various sucrose concentrations
# Description: The pET24b vector introduces a carboxy-terminal 6×His tag (SEQ ID NO: 52) on expressed proteins, which were purified by adsorption to Ni-NTA agarose (Qiagen) and elution with 25 mM NaH2PO4, 150 mM NaCl, 125 mM imidazole buffer (pH8.0) following the manufacturer's instructions. For storage, the eluted solution was diluted with 50% glycerol. The purity of SI proteins was tested by SDS-PAGE as described below. A batch procedure using Ni-NTA agarose in suspension yielded predominantly (80-95%) SI with a background of several other protein bands. A procedure using Ni-NTA agarose in adsorption columns yielded preparations containing a single protein band. […]
# Enzyme activities were measured by incubating 5 μl of purified enzyme with 95 μL of sucrose solution at a final concentration of 584 mM in 0.1 M citrate/phosphate buffer (pH 6.0) at 30° C. Sugar profiles in the reaction mix were analysed at intervals by CE as described previously. […]
# as §1
# [6] = test system: P. rubrum sucrose isomerase (SI); conditions: Nagai et al., 1994; Véronèse and Perlot, 1998; cited from earlier work
# [7] = test system: K. plymuthica sucrose isomerase (SI); conditions: Nagai et al., 1994; Véronèse and Perlot, 1998; cited from earlier work
# [8] = molecular target: T2, Pantoea dispersa 68J sucrose isomerase (SI), mature, SEQ ID NO: 10, carboxy-terminal 6×His tag (SEQ ID NO: 52); test: Sucrose isomerase kinetics, purified SI from P. dispersa 68J (isomaltulose production), with or without glucose/fructose; assay type: biochemical; conditions: glucose vs fructose, 0.277 M, various sucrose concentrations
# Description: (§4) The pET24b vector introduces a carboxy-terminal 6×His tag (SEQ ID NO: 52) on expressed proteins, which were purified by adsorption to Ni-NTA agarose (Qiagen) and elution with 25 mM NaH2PO4, 150 mM NaCl, 125 mM imidazole buffer (pH8.0) following the manufacturer's instructions. For storage, the eluted solution was diluted with 50% glycerol. The purity of SI proteins was tested by SDS-PAGE as described below. A batch procedure using Ni-NTA agarose in suspension yielded predominantly (80-95%) SI with a background of several other protein bands. A procedure using Ni-NTA agarose in adsorption columns yielded preparations containing a single protein band. Unless otherwise specified, this is the form of the purified SI enzymes used for biochemical characterisation.
# (§5) Enzyme activities were measured by incubating 5 μl of purified enzyme with 95 μL of sucrose solution at a final concentration of 584 mM in 0.1 M citrate/phosphate buffer (pH 6.0) at 30° C. Sugar profiles in the reaction mix were analysed at intervals by CE as described previously. One unit (U) of SI activity was defined as the amount of enzyme that could release 1 μmol of isomaltulose in one minute at the initial stage of the reaction.
# as §1
# E. rhapontici WAC2928 = test: Growth in BP medium with different sugars; assay type: cell-based; conditions: 2% sugar added to BP medium, 18 h incubation at 30°C
# Description: as §2, §3
# [9] = Conversion of sucrose to isomaltulose in transgenic sugarcane callus expressing SI genes; assay type: cell-based; conditions: cell extracts of transgenic sugarcane callus; 3 of 3 68J lines, 3 of 7 14S lines
# Source text: The sucrose isomerase (SI) gene insert in the pET 24b vector was further cloned between the Ubi promoter from the maize ubi-l gene (Christensen and Quail, 1996, Transgen. Res. 5: 215-218) and the Agrobacterium nos terminator (Bevan et al., 1983, Nature 304: 183-187) to drive expression in sugarcane cells.
# Plasmids with the sucrose isomerase genes (pU3ZErw, pU3Z14s or pU3Z68J) and the aph A construct plasmid pEmuKN (as a selectable marker) were isolated by alkaline extraction (Sambrook et al., 1989, supra), and dissolved in TE buffer. Plasmid intactness and absence of genomic DNA or RNA were checked by gel electrophoresis and concentration was measured by spectrophotometry. The sucrose isomerase (UbiSI) gene construct and selectable marker construct were co-precipitated onto tungsten microprojectiles and introduced into sugarcane callus, followed by selection for transformed callus, and regeneration of transgenic plants, essentially described by Bower et al. (1996, Molec. Breed. 2: 239-249).
# Precipitation reactions were conducted by adding the following at 4° C. in turn to a 1.5 mL microfuge tube: 5 μL pEmuKN plasmid DNA (1 mg/mL), 5 μL UbiSI plasmid DNA (1 μg/μL), 50 μL tungsten (Bio-Rad M10, 100 μg/μL), 50 μL CaCl2 (2.5M), 20 μL spermidine (100 mM free base). […]
# [10] = Assay of isolated (purified) SI enzyme activity; assay type: biochemical; conditions: purified fresh His-tagged enzymes
# Description: as §4, §5
# The enzymes were incubated with sucrose at different pH ranging from 2.0 to 10.6. The solution of pH 2.0 was buffered in 0.2 M KCl; pH 3.0 to pH 9.0 were in 0.1 M citrate/phosphate buffer; pH 10.0 to pH 10.6 were in 0.2 M glycine buffer. The effect of temperature from 10° C. to 70° C. was measured at pH 6.0. […]
# [11] = Storage stability of purified SI proteins; assay type: physicochemical; conditions: elution buffer diluted with 50% glycerol
# Description: The purified fresh enzymes from SDS-PAGE had specific activities for isomaltulose production of: E. rhapontici: 35 U mg^−1 protein, Klebsiella sp.: 95 U mg^−1 protein and P. dispersa: 632 U mg^−1 protein. The purified SI from E. rhapontici lost function during overnight storage at −20° C. in elution buffer diluted with 50% glycerol. In contrast, the purified enzymes from 14S or P. dispersa retained 100% of the fresh enzyme efficiency for isomaltulose production after 6-month storage at −20° C., or 60% after 15-day storage at room temperature in the same buffer. Because of instability, the E. rhapontici SI was not characterised further in purified form. Cheetham et al., (1984) found substantial differences between E. rhapontici strains for SI stability in immobilized cells, and the enzyme from strain NCPPB 1578 was stable in purified form (Cheetham, 1984).
# as §4
molecule,measurement,setting,value
O=C(CO)[C@@H](O)[C@H](O)[C@H](O)CO [fructose],mode of inhibition of isomaltulose production,[1],competitive inhibitors
same,mode of inhibition of isomaltulose production,[2],competitive inhibitors
same,effect on growth of P. dispersa 68J,P. dispersa 68J,supported faster growth
OC[C@H]1OC(O)[C@H](O)[C@@H](O)[C@@H]1O (some centres unmarked) [glucose],Inhibition of activity,[3],inhibit activity
same,Inhibition of activity,[4],inhibit activity
same,Relative inhibition,[5],stronger inhibition than fructose
same,Inhibition of activity,[6],inhibit activity
same,Inhibition of activity,[7],inhibit activity
same,Relative inhibition,[8],stronger inhibition than fructose
"OC[C@H]1O[C@H](OC[C@H]2OC(O)(CO)[C@@H](O)[C@@H]2O)[C@H](O)[C@@H](O)[C@@H]1O (stereo partly drawn) [isomaltulose, α-D-glucopyranosyl-1,6-D-fructofuranose]",effect on growth of P. dispersa 68J,P. dispersa 68J,little effect
same,effect on growth of E. rhapontici WAC2928,E. rhapontici WAC2928,substantially enhanced growth
"Erwinia rhapontici: sucrose isomerase cloned from Erwinia rhapontici WAC2928, SEQ ID NO: 2, mature polypeptide SEQ ID NO: 4 (protein, listed as Erwinia rhapontici, not fully specified; sig_peptide (1)..(36); mat_peptide (37)..(632); MOD_RES (200)..(200) Any amino acid) MSSQELKAAVAIFLATTFSATSYQACSAGPDTAPSLTVQQSNALPTWWKQAVFYQVYPRSFKDTNGDGIGDLNGIIENLDYLKKLGIDAIWINPHYDSPNTDNGYDIRDYRKIMKEYGTMEDFDRLISEMKKRNMRLMIDIVINHTSDQHAWFVQSKSGKNNPYRDYYFWRDGKDGHAPNNYPSFFGGSAWEKDDKSGQYYLHYFAKQQPDLNWDNPKVRQDLYDMLRFWLDKGVXGLRFDTVATYSKIPNFPDLSQQQLKNFAEEYTKGPKIHDYVNEMNREVLSHYDIATAGEIFGVPLDKSIKFFDRRRNELNIAFTFDLIRLDRDADERWRRKDWTLSQFRKIVDKVDQTAGEYGWNAFFLDNHDNPRAVSHFGDDRPQWREHAAKALATLTLTQRATPFIYQGSELGMTNYPFKKIDDFDDVEVKGFWQDYVETGKVKAEEFLTNVRQTSRDNSRTPFQWDASKNAGFTSGTPWLKINPNYKEINSADQINNPNSVFNYYRKLINIRHDIPALTYGSYIDLAPDNNSVYAYTRTFGAEKYLVVINFKEEVMHYTLPGDLSINKVITENNSHTIVNKNDVEDPRGATSVCSPFQAQKRPGDPGYSAAHSIRFLPRFFASYRGDIHAFK",isomaltulose peak relative to sucrose peak on the CE electrograph,[9],even lower isomaltulose levels than the 14S lines
same,specific activity for isomaltulose production,[10],35 U mg^−1 protein
same,function after overnight storage at −20° C.,[11],lost function
